Assay results as given in patent US20030186947A1, “Compounds having activity as inhibitors of cytochrome P450RAI” (priority 2000, published 2003).
Read-outs that look alike come from different tables or passages of the source.

Tested on: skin of hairless mice
Settings: topical in acetone, once daily days 1 through 5, mean ±SD, range 0-21
Excerpt: This irritation is a direct result of activation of the RAR nuclear receptors. Analysis of retinoid topical irritation is also a highly reproducible method of determining in vivo retinoid potency. The SKH1-hrBR or hairless mouse provides a convenient animal model of topical irritation, since retinoid-induced skin flaking and abrasion can be readily scored by eye (Standeven et al., “Specific antagonist of retinoid toxicity in mice.” Toxicol. Appl. Pharmacol. 138:169-175, (1996); Thacher, et al., “Receptor specificity of retinoid-induced hyperplasia. Effect of RXR-selective agonists and correlation with topical irritation”. J. Pharm. Exp. Ther., 282:528-534, (1997)).
Female hairless mice (Crl:SKH1-hrBR), 5-7 weeks old, were obtained from Charles River Breeding Labs (Wilmington, Mass.). Animals were about 6 weeks old at the start of the experiments. Food (Purina Rodent Chow 5001) and reverse osmosis water were provided ad libitum. Mice were housed individually throughout the dosing period. In some experiments, mice that fit within a defined weight range, e.g., 21-25 g, were selected from the available stock and then randomly assigned to the various treatment groups, using body weight as the randomization variable.
The compounds to be tested were dissolved in acetone for application to the backs of the mice.
Mice were treated topically on the back in a volume of 4.0 ml/kg (0.07-0.12 ml) adjusted daily so as to deliver a fixed dose of test compound per g body weight. Doses are disclosed as nmol/25 g.
The mice were weighed daily and the dorsal skin was graded daily using separate semi-quantitative scales to determine flaking and abrasion. These flaking and abrasion scores were combined with weight change (if any) to create a cutaneous toxicity score (Blackjack score).
A visual grading scale was used for characterizing topical irritation on a daily basis. The grading scale used is as follows:
The flaking and abrasion observations were combined with body weight observations to calculate a single, semiquantitative topical or cutaneous “toxicity score” as detailed below. The toxicity score (also known as “blackjack score” since the theoretical maximum is 21) takes into account the maximal severity, and the time of onset of skin flaking and abrasions and the extent of weight between the first and last days of the experiment. Below are listed the seven numerical components of the toxicity score and an explanation of how those values are combined to calculate the toxicity score.
Flaking onset score (2) and average severity score (3) are summed and divided by two. The quotient is added to the maximal severity score (1). Composite flaking scores are calculated for each individual animal in a group, averaged, and rounded to the nearest integer. Values can range from 0-9.
Abrasion onset score (5) and average severity score (6) are summed and divided by two. The quotient is added to the maximal severity score (4). Composite abrasion scores are calculated for each individual animal in a group, averaged and rounded to the nearest integer. Values can range from 0-8.
Composite flaking score, composite abrasion score, and systemic toxicity score are summed to give the “toxicity score.” Toxicity scores are calculated for each individual animal in a group, averaged, and rounded to the nearest integer. Values can range from 0-21 and are expressed in Table 1A below as the mean ±SD of the values for a group.

Row | Compound | Cutaneous Toxicity Score (Blackjack Score) (100 nmole (nmol/25 g)) | Cutaneous Toxicity Score (Blackjack Score) (1000 nmole (nmol/25 g)) | Cutaneous Toxicity Score (Blackjack Score) (300 nmole (nmol/25 g))
1 | CC1(C)CCC(=O)c2ccc(C#Cc3ccc(CC(=O)O)c(F)c3)cc21 [Compound 15, [2-Fluoro-4-(8.8-dimethyl-5-oxo-5,6,7,8-tetrahydro-naphthalene-2-yl-ethynyl)phenyl]-acetic acid] | 1 ± 1 | 5 ± 2 | 
2 | CCN(Cc1ccc(C#Cc2ccc(CC(=O)O)cc2)cc1C)C1CC1 [Compound 131] | 1 ± 1 | 1 ± 1 | 0 ± 1
